In one experiment the target is T1, M4 muscarinic receptor (Homo sapiens, UniProt P08173).
T1 construct: host or cells: Chinese hamster ovary cells
T1 sequence (P08173 1-479): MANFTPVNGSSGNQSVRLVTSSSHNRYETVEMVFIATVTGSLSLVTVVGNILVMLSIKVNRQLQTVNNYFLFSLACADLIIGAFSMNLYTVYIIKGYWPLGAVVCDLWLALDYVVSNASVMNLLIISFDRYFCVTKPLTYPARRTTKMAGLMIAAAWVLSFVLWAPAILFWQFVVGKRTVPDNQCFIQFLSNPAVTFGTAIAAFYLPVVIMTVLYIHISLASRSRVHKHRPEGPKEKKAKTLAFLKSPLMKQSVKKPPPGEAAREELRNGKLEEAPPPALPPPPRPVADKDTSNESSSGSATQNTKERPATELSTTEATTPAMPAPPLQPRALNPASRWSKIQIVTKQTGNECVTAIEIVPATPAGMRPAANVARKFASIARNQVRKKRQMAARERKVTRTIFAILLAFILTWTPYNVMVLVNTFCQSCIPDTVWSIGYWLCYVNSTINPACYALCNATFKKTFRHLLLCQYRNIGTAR
Put plainly: Dissociation of [3H]NMS (full time course kinetics). It is filed as binding. To be noted: [^3H]NMS dissociation. From the text: To probe the ability of JB-D4 to allosterically modulate orthosteric ligand, its effect on the rate of orthosteric radioligand dissociation has been investigated. […] Eq. 1 was fitted to the data from kinetic experiments. Data are means±SD from 3 independent experiments performed in quadruplicates. Equations: y=(100-f2)*e^(-Koff1*X)+f2*e^(-Koff2*X) (Eq. 1) where y is the percentage of radioligand binding at time x of radioligand binding at time 0, koff1 and koff2 are rate dissociation constants and f2 is the percentage of sites with koff2 rate of dissociation. […]. 2)

The target of another experiment is T2, M1 muscarinic receptor (Homo sapiens, UniProt P11229).
T2 sequence (P11229 1-460): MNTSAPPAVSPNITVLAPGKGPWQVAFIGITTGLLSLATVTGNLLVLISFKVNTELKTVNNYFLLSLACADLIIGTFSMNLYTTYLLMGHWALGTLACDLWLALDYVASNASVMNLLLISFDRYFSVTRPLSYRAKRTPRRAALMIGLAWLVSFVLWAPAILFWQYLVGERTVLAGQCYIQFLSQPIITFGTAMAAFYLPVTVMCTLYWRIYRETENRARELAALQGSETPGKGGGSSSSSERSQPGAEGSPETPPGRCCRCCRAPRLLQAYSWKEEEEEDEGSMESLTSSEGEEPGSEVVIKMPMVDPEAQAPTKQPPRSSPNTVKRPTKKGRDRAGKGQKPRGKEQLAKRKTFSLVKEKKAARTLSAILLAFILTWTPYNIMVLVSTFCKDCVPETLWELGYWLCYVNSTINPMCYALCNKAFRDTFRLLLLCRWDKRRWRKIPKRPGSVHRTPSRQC
Put plainly: Accumulation of inositol phosphates in CHO cells. It is filed as cell-based. To be noted: ligand 0.1 mM, no carbachol.

In experiment [1] the target is T3, M3 muscarinic receptor (Homo sapiens, UniProt P20309).
T3 construct: host or cells: Chinese hamster ovary cells
In words: Accumulation of inositol phosphates in CHO cells. Format: cell-based. The note with it: ligand 0.1 mM, no carbachol.
Method: (§1) Chinese hamster ovary cells stably transfected with the genes of human variants of muscarinic receptors were purchased from Missouri S&T cDNA Resource Center (Rolla, Mo., USA). […] Cells were grown to confluency in 75 cm^2 flasks in Dulbecco's modified Eagle's medium supplemented with 10% fetal bovine serum and 2 million of cells were subcultured to 100 mm Petri dishes. Medium was supplemented with 5 mM butyrate for the last 24 hours of cultivation to increase receptor expression.
(§2) Inositolphosphates formation was determined in cells pre-labeled overnight by 0.5 μM [^3H]myo-inositol in 0.3 mL of DMEM (3 μCi/ml) at 37° C. […] Incubation was stopped by removal of incubation buffer and addition 0.2 mL 20% trichloracetic acid (TCA). After 1 h incubation at 4° C., 100 μL, of TCA extracts were taken for measurement. Rest of the TCA was removed, and TCA precipitates were washed with 200 μL TCA and dissolved in 200 μL of 1 M NaOH. After 1 h incubation at 4° C., 100 μL, of NaOH lysates were taken for measurement. Radioactivity in TCA extracts and NaOH lysates were determined by liquid scintillation counting. The rate of inositolphosphates accumulation was calculated as a percentage of the soluble (released) inositolphosphates from the total incorporated radioactivity (sum of radioactivity in NaOH lysates and TCA extracts).
(§3) EC50 values are expressed as negative logarithms and EMAX values as folds over basal, Table 7.

In experiment [2] the target is T3, M3 muscarinic receptor. Put plainly: biochemical. Format: binding. To be noted: competition with [^3H]QNB.
The next experiment deals with T4, M5 muscarinic receptor (Homo sapiens, UniProt P08912).
T4 construct: host or cells: CHO (Chinese hamster ovary) cells, stably transfected
T4 sequence (P08912 1-532): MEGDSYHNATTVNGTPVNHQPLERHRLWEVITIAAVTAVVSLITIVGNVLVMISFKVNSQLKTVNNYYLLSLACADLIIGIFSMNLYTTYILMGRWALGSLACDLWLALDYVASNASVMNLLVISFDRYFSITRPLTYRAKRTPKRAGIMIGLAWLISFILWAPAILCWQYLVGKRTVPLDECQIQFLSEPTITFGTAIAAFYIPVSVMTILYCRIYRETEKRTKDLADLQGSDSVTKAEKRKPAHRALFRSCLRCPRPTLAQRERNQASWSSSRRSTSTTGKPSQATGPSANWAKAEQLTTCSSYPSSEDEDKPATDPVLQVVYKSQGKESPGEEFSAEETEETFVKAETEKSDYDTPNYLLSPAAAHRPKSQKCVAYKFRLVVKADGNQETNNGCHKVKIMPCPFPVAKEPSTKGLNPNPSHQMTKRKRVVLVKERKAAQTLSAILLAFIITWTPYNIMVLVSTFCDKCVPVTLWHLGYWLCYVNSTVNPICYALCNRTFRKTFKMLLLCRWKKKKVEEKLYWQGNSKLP
In words: Accumulation of inositol phosphates in CHO cells. Format: cell-based. The note with it: M5; ligand 0.1 mM; no carbachol.

Read-outs that look alike come from different tables or passages of the source.

Usually Ki stands for a measure of affinity in units of concentration, obtained from inhibition or displacement. High values mean a looser hold on the target, low ones a stronger hold on the target. The IC50 is the concentration that gives 50% inhibition.

T3 sequence (P20309 whole entry): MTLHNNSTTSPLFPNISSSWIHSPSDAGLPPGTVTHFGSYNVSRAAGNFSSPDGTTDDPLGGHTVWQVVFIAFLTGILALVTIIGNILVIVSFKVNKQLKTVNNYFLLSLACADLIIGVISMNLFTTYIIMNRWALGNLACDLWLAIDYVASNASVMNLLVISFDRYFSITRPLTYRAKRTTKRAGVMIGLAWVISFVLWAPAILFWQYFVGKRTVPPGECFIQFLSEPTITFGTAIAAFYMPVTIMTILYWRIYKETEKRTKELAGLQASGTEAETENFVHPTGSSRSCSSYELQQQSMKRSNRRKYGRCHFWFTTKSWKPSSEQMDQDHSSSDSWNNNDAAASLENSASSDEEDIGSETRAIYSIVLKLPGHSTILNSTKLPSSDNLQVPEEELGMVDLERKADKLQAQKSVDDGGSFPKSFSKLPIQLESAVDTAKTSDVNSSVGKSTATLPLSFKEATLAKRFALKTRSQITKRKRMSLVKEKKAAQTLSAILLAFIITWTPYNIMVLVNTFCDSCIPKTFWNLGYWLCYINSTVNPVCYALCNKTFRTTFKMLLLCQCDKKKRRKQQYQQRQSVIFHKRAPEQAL
Method for M1 muscarinic receptor: as §1, §2, §3
Method for M5 muscarinic receptor: as §1, §2, §3

For `CCCCOc1ccc(C(=O)OCC[N+]2(C)CCCCC2)cc1.[I-]` [JB-D4, 2-(N-piperidineethyl) p-butoxybenzoate N-methyl iodide], the koff1 on M4 muscarinic receptor (+0.1 mM JB-D4, M4) is 0.000106 ± 8.3e-06 s⁻¹; at M4 muscarinic receptor (+1 mM JB-D4, M4), 2.11e-05 ± 1.7e-06 s⁻¹. For the same molecule, the figures for the “Effect of ligands on basal activity (accumulation of inositol phosphates as percent of accumulation in the absence of the ligand)” value at M1 muscarinic receptor, at M3 muscarinic receptor [1] and at M5 muscarinic receptor were 97 ± 2%, 102 ± 2% and 98 ± 3%, respectively. At M3 muscarinic receptor [2] (M3), the inhibition constant Ki is 4.34 µM. The half-maximal inhibitory concentration (IC50) at M3 muscarinic receptor [2] (M3, average of 3, read-out: avg IC50) came out at 29.4 µM; on M3 muscarinic receptor [2] (M3, experiment 1, read-out: IC50—1) it was 39.5 µM; at M3 muscarinic receptor [2] (M3, experiment 2, read-out: IC50—2) it was 20.6 µM; at M3 muscarinic receptor [2] (M3, experiment 3, read-out: IC50—3) it was 28.2 µM.

The values are drawn from patent US9662318B2, “Bitopic muscarinic agonists and antagonists and methods of synthesis and use thereof” (BARRY UNIVERSITY, INC., priority 2012, dated 2017).
